Experiment [1] can be described thus: Overall survival (Kaplan-Meier) of MDS or AML patients treated with AZA, cohort 1. The class given is in vivo, human. From the text: The comparison of the overall survival with transplantation according to Kaplan-Meier was examined for patients with MDS or AML treated with AZA, as well as the percentage of cells expressing BCL2L10 in their bone marrow.
An overall survival of 3 months was estimated at 95% for the sub-groups weakly expressing BCL2L10 compared with 51% for the sub-groups strongly expressing BCL2L10. For all of the patients in the sub-group strongly expressing BCL2L10, the disease progressed.

Another experiment deals with SKM1-S cells. In words: Cell metabolism by XTT test after azacitidine stimulation. The class given is cell-based. The following applies: 1 μM azacitidine, 24 h. The method, then:
The SKM1-S and SKM1-R cells are transfected with an interfering RNA:Luc siRNA, BCL2L10 siRNA or Bcl-2 siRNA. After 72 h of transfection, the cells are stimulated with 1 μM of azacitidine.
In FIG. 7, the cell metabolism is measured 24 hours after stimulation by means of the XTT test ([…]). The results shown correspond to the average standard error of the mean (±SEM) of three independent experiments performed four times.
To determine whether the overexpression of BCL2L10 is a cause rather than a consequence of azacitidine resistance, the SKM1-S and SKM1-R cells were transfected with a control siRNA or with siRNA directed against one or the other of the BCL2L10 or Bcl-2 proteins, then treated for 24 h with or without azacitidine, before determining cell viability and apoptosis. […] In addition, apoptosis was the main mechanism by which the extinction of the expression of the BCL2L10 gene enabled azacitidine sensitization by increasing the quantity of active caspase-3.
(In general: Tetrazolium dyes change colour on reduction, which living cells bring about.)

The record followed here is patent US20150094217A1, “TEST FOR DIAGNOSING RESISTANCE TO AZACITIDINE” (UNIVERSITÉ NICE SOPHIA ANTIPOLIS, priority 2012, published 2015).

On to `Nc1ncn([C@@H]2O[C@H](CO)[C@@H](O)[C@H]2O)c(=O)n1` [Azacitidine], for which the “overall survival of 3 months” value in experiment [1] (sub-groups strongly expressing BCL2L10, cohort 1) was determined as 51%; in experiment [1] (sub-groups weakly expressing BCL2L10, cohort 1) it was 95%. For the same molecule, the cell metabolism result in the experiment with SKM1-S cells is “loss in cell metabolism”.
